Experimental data reported in patent publication EP4603105A1, “PHARMACEUTICAL COMPOSITION CONTAINING CYCLIC COMPOUND HAVING SELECTIVE KRAS INHIBITORY EFFECT AGAINST HRAS AND NRAS” (CHUGAI SEIYAKU KABUSHIKI KAISHA, priority 2022, dated 2024).
Like-named read-outs stand apart in the source and are kept apart here.

Columns and labels:
HRAS wild-type protein = HRAS wild-type protein (Homo sapiens, UniProt P01112); assay: Binding to HRAS by surface plasmon resonance (SPR), KD and KD ratio to KRAS
Procedure, shortened: (§1)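 Measured at 30°C: SPR with GDP-loaded, E. coli-expressed biotin-Avi RAS captured (~100–300 RU), ascending 75 s compound injections, HBS pH 7.4 with GDP, MgCl2, 4% DMSO. KD from 1:1 fit.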

[1] = test system: human lung cancer strain NCI-H441; assay: NCI-H441 cell proliferation inhibitory activity (CellTiter-Glo, 4 days); type: cell-based; conditions: read-out: NCl-H441 IC50
Procedure, shortened: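 Signal came from […] measured per well once the reagent was added. Beforehand, cells were cultured at 37°C and 5% carbon dioxide on a compound series serially diluted in dimethyl sulfoxide.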

[2] = target: GDP-bound KRAS wild-type protein (Homo sapiens, UniProt P01116); assay: Binding to KRAS by surface plasmon resonance (SPR), dissociation constant KD
Procedure, shortened: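 Affinity is measured by surface plasmon resonance at 30°C against captured, GDP-loaded RAS carrying a biotinylated Avi tag. Compounds are titrated by single-cycle kinetics, and KD comes from a 1:1 fit.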

[3] = target: GDP-bound NRAS wild-type protein (Homo sapiens, UniProt P01111); assay: Binding to NRAS by surface plasmon resonance (SPR), KD and KD ratio to KRAS
Procedure, shortened: as §1

[4] = ratio of KD for HRAS wild-type protein to KD for KRAS
[5] = ratio of KD for GDP-bound NRAS wild-type protein to KD for KRAS
[6] = ratio of KD with respect to HRAS wild-type protein to KD with respect to KRAS
[7] = 50% proliferation inhibitory concentration, four days
[8] = Single Cycle Kinetics, 1:1 binding model
[9] = ratio of KD with respect to GDP-bound NRAS wild-type protein to KD with respect to KRAS

Sequence of GDP-bound KRAS wild-type protein (P01116 1-188 isoform P01116-2): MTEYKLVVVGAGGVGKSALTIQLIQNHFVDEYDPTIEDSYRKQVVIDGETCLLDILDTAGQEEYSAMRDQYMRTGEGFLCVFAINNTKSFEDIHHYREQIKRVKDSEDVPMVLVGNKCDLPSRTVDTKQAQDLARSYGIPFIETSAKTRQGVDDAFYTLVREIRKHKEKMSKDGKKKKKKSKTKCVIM
Sequence of HRAS wild-type protein (P01112 whole entry): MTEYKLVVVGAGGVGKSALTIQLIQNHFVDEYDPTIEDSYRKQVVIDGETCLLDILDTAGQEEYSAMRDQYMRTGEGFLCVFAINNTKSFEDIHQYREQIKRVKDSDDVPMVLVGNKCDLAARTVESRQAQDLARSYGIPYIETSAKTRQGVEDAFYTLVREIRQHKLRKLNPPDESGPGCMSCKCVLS
Sequence of GDP-bound NRAS wild-type protein (P01111 whole entry): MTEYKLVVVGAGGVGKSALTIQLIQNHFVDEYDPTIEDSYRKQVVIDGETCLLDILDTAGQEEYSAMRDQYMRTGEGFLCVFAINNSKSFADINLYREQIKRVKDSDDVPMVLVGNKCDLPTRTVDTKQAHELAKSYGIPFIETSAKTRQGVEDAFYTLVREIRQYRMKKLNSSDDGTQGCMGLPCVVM

Compound	HRAS /KRAS (HRAS wild-type protein; [4])	IC50 ([1]; NCI-H441 cells, 4 days) [nM]	Kd ([2]; Single Cycle Kinetics) [nM]	NRAS /KRAS [3, 5]	Kd ([2]; 1:1 binding model) [nM]	HRAS /KRAS (HRAS wild-type protein; [6])	IC50 [1, 7] [nM]	Kd [2, 8] [nM]	NRAS /KRAS [3, 9]
C#CC[C@H]1C(=O)N[C@@H]([C@@H](C)CC)C(=O)N(C)CC(=O)N(C)[C@H]2C/C=C\CCN(C2=O)[C@@H](Cc2ccc(C)cc2)C(=O)N(C)CC(=O)N[C@@H](CCc2ccc(C(F)(F)F)c(OC)c2)C(=O)N2C[C@H](OCC)C[C@H]2C(=O)N(C)C2(CCC2)C(=O)N(C)[C@@H](C2CCCC2)C(=O)N(C)[C@H](C(=O)N(C)C)CC(=O)N1C [PP3236]	B (a compound having 3 or more and less than 10 is denoted as B)	3.9	0.028	A (a compound having 10 or more and less than 20 is denoted as A)					
CCC[C@H]1C(=O)N[C@@H]([C@@H](C)CC)C(=O)N(C2CC2)CC(=O)N(C)[C@H]2C/C=C\CCN(C2=O)[C@@H](Cc2ccc(C)cc2)C(=O)N(C)CC(=O)N[C@@H](CCc2ccc(Cl)c(Cl)c2)C(=O)N2C[C@H](OCC)C[C@H]2C(=O)NC2(CC(C)(C)C2)C(=O)N(C)[C@@H](CC(C)(C)C)C(=O)N(C)[C@H](C(=O)N(C)C)CC(=O)N1C [PP2726]	A (a compound having 10 or more and less than 20 is denoted as A)	51		AA (a compound having 20 or more is denoted as AA)	1.1				
CCOC[C@H]1C(=O)N[C@@H]([C@@H](C)CC)C(=O)N(C)CC(=O)N(C)[C@H]2C/C=C\CCN(C2=O)[C@@H](Cc2ccc(C)cc2)C(=O)N(C)CC(=O)N[C@@H](CCc2ccc(C(F)(F)F)c(Cl)c2)C(=O)N2C[C@@H](C)C[C@H]2C(=O)NC2(CC(C)(C)C2)C(=O)N(C)[C@@H](C2CCCC2)C(=O)N(C)[C@H](C(=O)N(C)CC)CC(=O)N1C [PP2451]	A (a compound having 10 or more and less than 20 is denoted as A)	8.6		A (a compound having 10 or more and less than 20 is denoted as A)	0.17				
CCC[C@H]1C(=O)N[C@@H]([C@@H](C)CC)C(=O)N2CCCC[C@H]2C(=O)N(C)[C@H]2C/C=C\CCN(C2=O)[C@@H](Cc2ccc(C(F)(F)F)cc2)C(=O)N(C)CC(=O)N[C@@H](CCc2ccc(C(F)(F)F)c(OC)c2)C(=O)N2C[C@H](OCC)C[C@H]2C(=O)N(C)C2(CCC2)C(=O)N(C)[C@@H](C2CCCC2)C(=O)N(C)[C@H](C(=O)N(C)C)CC(=O)N1C [PP3270]	B (a compound having 3 or more and less than 10 is denoted as B)	13.9	0.43	A (a compound having 10 or more and less than 20 is denoted as A)					
CCO[C@@H]1C[C@H]2C(=O)NC3(CCC3)C(=O)N(C)[C@@H](C3CCCC3)C(=O)N(C)[C@H](C(=O)N3CCOCC3)CC(=O)N(C)[C@@H](CC(C)C)C(=O)N[C@@H]([C@@H](C)CC)C(=O)N3CC[C@H]3C(=O)N(C)[C@H]3C[C@@H](C)[C@@H](C)CN(C3=O)[C@@H](Cc3ccc(C(F)(F)F)cc3)C(=O)N(C)CC(=O)N[C@@H](CCc3ccc(C(F)(F)F)c(Cl)c3)C(=O)N2C1 [PP1361]						B (a compound having 3 or more and less than 10 is denoted as B)	6.2	0.15	A (a compound having 10 or more and less than 20 is denoted as A)
C=CC[C@H]1C(=O)N(C)[C@H](C(=O)N(C)C)CC(=O)N(C)[C@@H](CC(C)C)C(=O)N[C@@H]([C@@H](C)CC)C(=O)N(C)CC(=O)N(C)[C@H]2C/C=C\CCN(C2=O)[C@@H](Cc2ccc(C)cc2)C(=O)N(C)CC(=O)N[C@@H](CCc2cc(F)c(C(F)(F)F)c(F)c2)C(=O)N2C[C@H](OCC)C[C@H]2C(=O)N(C)C2(CCC2)C(=O)N1C [PP3348]	A (a compound having 10 or more and less than 20 is denoted as A)	25.4	1.4	A (a compound having 10 or more and less than 20 is denoted as A)					
CC[C@H](C)[C@@H]1NC(=O)[C@H](CC2CC2)N(C)C(=O)C[C@@H](C(=O)N(C)C)N(C)C(=O)[C@H](C2CCCC2)N(C)C(=O)C2(CCC2)NC(=O)[C@H](CCC(F)F)N(C)C(=O)[C@H](CCc2cc(F)c(C(F)(F)F)c(F)c2)NC(=O)CN(C)C(=O)[C@H](Cc2ccc(C(F)(F)F)cc2)N2CC/C=C\C[C@@H](C2=O)N(C)C(=O)CN(C)C1=O [PP1402]						A (a compound having 10 or more and less than 20 is denoted as A)	82	0.3	A (a compound having 10 or more and less than 20 is denoted as A)
CCCN(C)C(=O)[C@@H]1CC(=O)N(C)[C@@H](CC(C)C)C(=O)N[C@@H]([C@@H](C)CC)C(=O)N2CCC[C@H]2C(=O)N(C)[C@H]2C/C=C\CCN(C2=O)[C@@H](Cc2ccc(C(F)(F)F)cc2)C(=O)N(C)CC(=O)N[C@@H](CCc2cc(F)c(C(F)(F)F)c(F)c2)C(=O)N2C[C@H](OCC)C[C@H]2C(=O)N[C@]2(C[C@@H](OC)C2)C(=O)N(C)[C@@H](C2CCCC2)C(=O)N1C [PP3354]	A (a compound having 10 or more and less than 20 is denoted as A)	58.5	1.4	A (a compound having 10 or more and less than 20 is denoted as A)					
CCCOC[C@H]1C(=O)N[C@@H]([C@@H](C)CC)C(=O)N(CCC)CC(=O)N(C)[C@H]2C/C=C\CCN(C2=O)[C@@H](Cc2ccc(C(F)F)cc2)C(=O)N(C)CC(=O)N[C@@H](CCc2cc(F)c(C(F)(F)F)c(F)c2)C(=O)N2C[C@H](OC3CCC3)C[C@H]2C(=O)N(C)C2(CCC2)C(=O)N(C)[C@@H](C(CC)CC)C(=O)N(C)[C@H](C(=O)N(C)C)CC(=O)N1C [PP3502]	A (a compound having 10 or more and less than 20 is denoted as A)	22.4	0.5	AA (a compound having 20 or more is denoted as AA)					
CCCO[C@@H]1C[C@H]2C(=O)NC3(CC(C)(C)C3)C(=O)N(C)[C@@H](C3CCCC3)C(=O)N(C)[C@H](C(=O)N(C)CC)CC(=O)N(C)[C@@H](COCC)C(=O)N[C@@H]([C@@H](C)CC)C(=O)N3CCC[C@H]3C(=O)N(C)[C@H]3C/C=C\CCN(C3=O)[C@@H](Cc3ccc(C(F)(F)F)cc3)C(=O)N(C)CC(=O)N[C@@H](CCc3ccc(C(F)(F)F)c(OC)c3)C(=O)N2C1 [PP3413]	A (a compound having 10 or more and less than 20 is denoted as A)	23.8	0.73	AA (a compound having 20 or more is denoted as AA)					
CCC[C@H]1C(=O)N[C@@H]([C@@H](C)CC)C(=O)N(C2CC2)CC(=O)N(C)[C@H]2C/C=C\CCN(C2=O)[C@@H](Cc2ccc(C(F)(F)F)cc2)C(=O)N(C)CC(=O)N[C@@H](CCc2ccc(C(F)(F)F)c(Cl)c2)C(=O)N2CC[C@H](OC)[C@H]2C(=O)N(C)C2(CCC2)C(=O)N(C)[C@@H](C2CCCC2)C(=O)N(C)[C@H](C(=O)N(C)C)CC(=O)N1C [PP3288]	A (a compound having 10 or more and less than 20 is denoted as A)	6.9	0.21	A (a compound having 10 or more and less than 20 is denoted as A)					
CCCO[C@@H]1C[C@H]2C(=O)NC3(CC(C)(C)C3)C(=O)N(C)[C@@H](C3CCCC3)C(=O)N(C)[C@H](C(=O)N(C)CC)CC(=O)N[C@@H](COCC)C(=O)N[C@@H]([C@@H](C)CC)C(=O)N3CCC[C@H]3C(=O)N(C)[C@H]3C/C=C\CCN(C3=O)[C@@H](Cc3ccc(C)cc3)C(=O)N(C)CC(=O)N[C@@H](CCc3ccc(C(F)(F)F)c(Cl)c3)C(=O)N2C1 [PP3431]	A (a compound having 10 or more and less than 20 is denoted as A)	79.5	3	A (a compound having 10 or more and less than 20 is denoted as A)					
